Data on 22 molecules can be found in patent US9822108B2, “Antimicrobial agents” (RUTGERS, THE STATE UNIVERSITY OF NEW JERSEY, priority 2012, dated 2017).

In assay [1] the test system is methicillin-susceptible Staphylococcus aureus (MSSA). In words: Antibacterial assay (Test C, broth microdilution MIC) against MSSA. The class given is cell-based. The following applies: minimal inhibitory concentration, 37° C., growth read after 24 to 48 hours at OD 600 nm, read-out: MSSA (MIC ug/ml). On the procedure: (§1) Test C. Antibacterial Assay.
(§2) Antibacterial activity can be determined as per Clinical and Laboratory Standards Institute (CLSI) guidelines using a broth microdilution assay in which log-phase bacteria are grown at 37° C. in appropriate medium containing two-fold serial dilutions of a compound to yield final concentrations ranging from 256 to 0.06 μg/mL. For determination of minimal inhibitory concentration (MIC) values, bacterial growth is monitored after 24 to 48 hours by measuring optical density at 600 nm.
(§3) Using a procedure similar to Test C, representative compounds of the invention were tested against methicillin-susceptible Staphylococcus aureus (MSSA) and methicillin-resistant Staphylococcus aureus (MRSA).

Assay [2] has as its system methicillin-resistant Staphylococcus aureus (MRSA). Put plainly: Antibacterial assay (Test C, broth microdilution MIC) against MRSA. The class given is cell-based. To be noted: minimal inhibitory concentration, 37° C., growth read after 24 to 48 hours at OD 600 nm, read-out: MRSA (MIC ug/ml). The method, then: as §1, §2, §3
A general note: In broth dilution the organism is exposed to a series of concentrations in liquid medium.

Values after ≈ are worked out from the molar mass of the structure shown.

For the molecule `C[n+]1cc(-c2ccccc2)nc2ccccc21` [Example 1], the figures for the MIC in assay [1] and in assay [2] were 2 µg/mL and 8 µg/mL, respectively.
As for `C[n+]1cc(-c2cccc(F)c2)nc2ccccc21` [Example 2], the MIC was determined as 2 µg/mL in assay [1] and 4 µg/mL in assay [2].
The corresponding values for `C[n+]1cc(-c2cccc(-c3ccccc3)c2)nc2ccccc21` [Example 3] are 0.25 µg/mL and 0.25 µg/mL.
The corresponding values for `C[n+]1cc(-c2cccc(C(C)(C)C)c2)nc2ccccc21` [Example 4] are 0.5 µg/mL and 1 µg/mL.
In the same order, the values of `C[n+]1cc(-c2ccc(C(C)(C)C)cc2)nc2ccccc21` [Example 5] are 0.5 µg/mL and 1 µg/mL.
Consider `COC(=O)c1cc(-c2ccc(C(C)(C)C)cc2)cc(-c2c[n+](C)c3ccccc3n2)c1` [Example 6], for which the MIC in assay [1] is 0.5 µg/mL; in assay [2] it was 1 µg/mL.
The corresponding values for `C[n+]1cc(-c2cc(C(N)=O)cc(-c3ccc(C(C)(C)C)cc3)c2)nc2ccccc21` [Example 7] are 2 µg/mL and 2 µg/mL.
For `C[n+]1cc(-c2cc(C(=O)NCCO)cc(-c3ccc(C(C)(C)C)cc3)c2)nc2ccccc21` [Example 8], the MIC in assay [1] and in assay [2] was 4 µg/mL each time.
Consider `CC(C)(C)c1ccc(-c2cc(C(=O)NCCN)cc(-c3cnc4ccccc4n3)c2)cc1` [Example 9], for which the MIC in assay [1] and in assay [2] was 4 µg/mL (≈ 9.42 µM) each time.
As for `CC(C)(C)c1ccc(-c2cnc3c(CNC(=N)N)cccc3n2)cc1` [Example 10], the MIC in assay [1] and in assay [2] was 2 µg/mL (≈ 6 µM) throughout.
Consider `CC(C)(C)c1cccc(-c2cnc3c(CNC(=N)N)cccc3n2)c1` [Example 11], for which the MIC in assay [1] was determined as 1 µg/mL (≈ 3 µM); in assay [2], 2 µg/mL (≈ 6 µM).
The corresponding values for `CC(C)(C)c1ccc(-c2ncnc3c(CNC(=N)N)cccc23)cc1` [Example 12] are 2 µg/mL (≈ 6 µM) and 4 µg/mL (≈ 12 µM).
Turning to `CC(=N)NCc1cccc2c(-c3ccc(C(C)(C)C)cc3)ncnc12` [Example 13], the MIC was 32 µg/mL (≈ 96.3 µM) in assay [1] and 64 µg/mL (≈ 193 µM) in assay [2].
`CC(C)(C)c1ccc(-c2ncnc3c(CN)cccc23)cc1` [Example 14]: the MIC in assay [1] was 32 µg/mL (≈ 110 µM); in assay [2], 64 µg/mL (≈ 220 µM).
In the same order, the values of `Cc1cccc(-c2nc3ccccc3nc2NCCN)c1` [Example 15] are over 64 µg/mL and over 64 µg/mL.
The corresponding values for `CC(C)(C)c1ccc(-c2cccc3c(CNC(=N)N)ncnc23)cc1` [Example 16] are 8 µg/mL (≈ 24 µM) and 64 µg/mL (≈ 192 µM).
In the same order, the values of `CC(C)(C)c1ccc(-c2ccnc3c(CNC(=N)N)ccnc23)cc1` [Example 17] are 4 µg/mL (≈ 12 µM) and 8 µg/mL (≈ 24 µM).
Turning to `CC(C)(C)c1ccc(-c2ccnc3c(CN)ccnc23)cc1` [Example 18], the MIC in assay [1] and in assay [2] was over 64 µg/mL each time.
For the molecule `CC(C)(C)c1ccc(-c2nnc(CNC(=N)N)c3ccccc23)cc1` [Example 19], the MIC in assay [1] is 16 µg/mL (≈ 48 µM).
Same read-out and setting: next, `CC(C)(C)c1cccc(-c2nc(CNC(=N)N)c3ccccc3n2)c1` [Example 20]: 4 µg/mL (≈ 12 µM).
On to `CC(C)(C)c1cccc(-c2cnc3cccc(CNC(=N)N)c3n2)c1` [Example 21], for which the MIC in assay [1] and in assay [2] was 2 µg/mL (≈ 6 µM) throughout.
On to `CC(C)(C)c1cccc(-c2cnc3cc(CNC(=N)N)ccc3n2)c1` [Example 22], for which the values for the MIC in assay [1] and in assay [2] were 4 µg/mL (≈ 12 µM) and 8 µg/mL (≈ 24 µM), respectively.
